In patent US12552783B2, “Modulators of proteolysis and associated methods of use” (Arvinas Operations, Inc., priority 2018, dated 2026):

Molecular target: KRas (Homo sapiens, UniProt P01116, G12C)
Experiment: KRas degradation in NCI-H2030 cells by Western blot, normalized to GAPDH (data of Table 14)
Assay type: cell-based
Parameters: host or cells: NCI-H2030
Details: for Percent Degradation at Indicated Concentration (μM): 0.1: 0.1 μM; for Dmax: NCI-H2030; for Percent Degradation at Indicated Concentration (μM): H2030
In short: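 Both lines are homozygous for KRas G12C and were serum-starved for 24 h before treatment with compound at 0.3, 1 or 3 μM in 0.1% DMSO: 24 h for VHL-based compounds, 72 h for the rest. Western blot of 10 μg lysate gave KRas signal normalized to GAPDH, and percent degradation was expressed relative to the DMSO control.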

Percent Degradation at Indicated Concentration (μM): 0.1 (H2030 cells) | Percent Degradation at Indicated Concentration (μM): 0.3 (H2030 cells, 0.3 μM) | Percent Degradation at Indicated Concentration (μM): 1 (H2030 cells, 1 μM) | Dmax (H2030 cells) | Percent Degradation at Indicated Concentration (μM): 3 (H2030 cells, 3 μM) | Percent Degradation at Indicated Concentration (μM) (0.3 μM) | Percent Degradation at Indicated Concentration (μM) (1 μM) | Percent Degradation at Indicated Concentration (μM) (3 μM) | Dmax | SMILES
C (C ≤ 35) | C (C ≤ 35) | C (C ≤ 35) | ≤ 35% |  |  |  |  |  | C=CC(=O)N1CCN(c2nc(NCCC(=O)N(C)CCOCC(=O)N[C@H](C(=O)N3C[C@H](O)C[C@H]3C(=O)N[C@@H](C)c3ccc(-c4scnc4C)cc3)C(C)(C)C)nc3c(F)c(-c4cc(O)cc5ccccc45)c(Cl)cc23)CC1 [compound 191, (2S,4R)-1-((2S)-2-(2-(2-(3-((4-(4-acryloylpiperazin-1-yl)-6-chloro-8-fluoro-7-(3-hydroxynaphthalen-1-yl)quinazolin-2-yl)amino)-N-methylpropanamido)ethoxy)acetamido)-3,3-dimethylbutanoyl)-4-hydroxy-N-((S)-1-(4-(4-methylthiazol-5-yl)phenyl)ethyl)pyrrolidine-2-carboxamide]
C (C ≤ 35) | C (C ≤ 35) | C (C ≤ 35) | ≤ 35% |  |  |  |  |  | C=CC(=O)N1CCN(c2nc(NCCC(=O)N(C)CCOCCOCC(=O)N[C@H](C(=O)N3C[C@H](O)C[C@H]3C(=O)N[C@@H](C)c3ccc(-c4scnc4C)cc3)C(C)(C)C)nc3c(F)c(-c4cc(O)cc5ccccc45)c(Cl)cc23)CC1 [compound 192, (2S,4R)-1-((2S)-15-((4-(4-acryloylpiperazin-1-yl)-6-chloro-8-fluoro-7-(3-hydroxynaphthalen-1-yl)quinazolin-2-yl)amino)-2-(tert-butyl)-12-methyl-4,13-dioxo-6,9-dioxa-3,12-diazapentadecanoyl)-4-hydroxy-N-((S)-1-(4-(4-methylthiazol-5-yl)phenyl)ethyl)pyrrolidine-2-carboxamide]
 | C (C ≤ 35) | C (C ≤ 35) | ≤ 35% | C (C ≤ 35) |  |  |  |  | C=CC(=O)N1CCN(c2nc(NCCC(=O)N(C)CCOCCOCCOCC(=O)N[C@H](C(=O)N3C[C@H](O)C[C@H]3C(=O)N[C@@H](C)c3ccc(-c4scnc4C)cc3)C(C)(C)C)nc3c(F)c(-c4cc(O)cc5ccccc45)c(Cl)cc23)CC1 [compound 193, (2S,4R)-1-((2S)-18-((4-(4-acryloylpiperazin-1-yl)-6-chloro-8-fluoro-7-(3-hydroxynaphthalen-1-yl)quinazolin-2-yl)amino)-2-(tert-butyl)-15-methyl-4,16-dioxo-6,9,12-trioxa-3,15-diazaoctadecanoyl)-4-hydroxy-N-((S)-1-(4-(4-methylthiazol-5-yl)phenyl)ethyl)pyrrolidine-2-carboxamide]
 | C (C ≤ 35) | C (C ≤ 35) | ≤ 35% | C (C ≤ 35) |  |  |  |  | C=CC(=O)N1CCN(c2nc(NCCC(=O)N(C)CCOCCOCCOCCOCC(=O)N[C@H](C(=O)N3C[C@H](O)C[C@H]3C(=O)N[C@@H](C)c3ccc(-c4scnc4C)cc3)C(C)(C)C)nc3c(F)c(-c4cc(O)cc5ccccc45)c(Cl)cc23)CC1 [compound 194, (2S,4R)-1-((2S)-21-((4-(4-acryloylpiperazin-1-yl)-6-chloro-8-fluoro-7-(3-hydroxynaphthalen-1-yl)quinazolin-2-yl)amino)-2-(tert-butyl)-18-methyl-4,19-dioxo-6,9,12,15-tetraoxa-3,18-diazahenicosanoyl)-4-hydroxy-N-((S)-1-(4-(4-methylthiazol-5-yl)phenyl)ethyl)pyrrolidine-2-carboxamide]
 | C (C ≤ 35) | C (C ≤ 35) | ≤ 35% | C (C ≤ 35) |  |  |  |  | C=CC(=O)N1CCN(c2nc(NCCC(=O)N(C)CCOCCOCCOCCOCCOCC(=O)N[C@H](C(=O)N3C[C@H](O)C[C@H]3C(=O)N[C@@H](C)c3ccc(-c4scnc4C)cc3)C(C)(C)C)nc3c(F)c(-c4cc(O)cc5ccccc45)c(Cl)cc23)CC1 [compound 197, (2S,4R)-1-((2S)-24-((4-(4-acryloylpiperazin-1-yl)-6-chloro-8-fluoro-7-(3-hydroxynaphthalen-1-yl)quinazolin-2-yl)amino)-2-(tert-butyl)-21-methyl-4,22-dioxo-6,9,12,15,18-pentaoxa-3,21-diazatetracosanoyl)-4-hydroxy-N-((S)-1-(4-(4-methylthiazol-5-yl)phenyl)ethyl)pyrrolidine-2-carboxamide]
 |  |  |  |  | C (Percent Degradation: C ≤ 35) | C (Percent Degradation: C ≤ 35) | C (Percent Degradation: C ≤ 35) | ≤ 35% | C=CC(=O)N1CCN(c2nc(NCCC(=O)N(C)CCOCCOCCOCCOCCOCCOCCOCCOCCOCCOCC(=O)N[C@H](C(=O)N3C[C@H](O)C[C@H]3C(=O)N[C@@H](C)c3ccc(-c4scnc4C)cc3)C(C)(C)C)nc3c(F)c(-c4cc(O)cc5ccccc45)c(Cl)cc23)CC1 [compound 198, (2S,4R)-1-((2S)-39-((4-(4-acryloylpiperazin-1-yl)-6-chloro-8-fluoro-7-(3-hydroxynaphthalen-1-yl)quinazolin-2-yl)amino)-2-(tert-butyl)-36-methyl-4,37-dioxo-6,9,12,15,18,21,24,27,30,33-decaoxa-3,36-diazanonatriacontanoyl)-4-hydroxy-N-((S)-1-(4-(4-methylthiazol-5-yl)phenyl)ethyl)pyrrolidine-2-carboxamide]
 |  |  |  |  | C (Percent Degradation: C ≤ 35) | C (Percent Degradation: C ≤ 35) | C (Percent Degradation: C ≤ 35) | ≤ 35% | C=CC(=O)N1CCN(c2nc(NCCC(=O)N(C)CCOCCOCCOCCOCC(=O)N[C@H](C(=O)N3C[C@@H](O)C[C@H]3C(=O)N[C@@H](C)c3ccc(-c4scnc4C)cc3)C(C)(C)C)nc3c(F)c(-c4cc(O)cc5ccccc45)c(Cl)cc23)CC1 [compound 199, (2S,4S)-1-((2S)-21-((4-(4-acryloylpiperazin-1-yl)-6-chloro-8-fluoro-7-(3-hydroxynaphthalen-1-yl)quinazolin-2-yl)amino)-2-(tert-butyl)-18-methyl-4,19-dioxo-6,9,12,15-tetraoxa-3,18-diazahenicosanoyl)-4-hydroxy-N-((S)-1-(4-(4-methylthiazol-5-yl)phenyl)ethyl)pyrrolidine-2-carboxamide]
 |  |  |  |  | C (Percent Degradation: C ≤ 35) | C (Percent Degradation: C ≤ 35) | C (Percent Degradation: C ≤ 35) | ≤ 35% | CC(=O)N1CCN(c2nc(NCCC(=O)N(C)CCOCC(=O)N[C@H](C(=O)N3C[C@H](O)C[C@H]3C(=O)N[C@@H](C)c3ccc(-c4scnc4C)cc3)C(C)(C)C)nc3c(F)c(-c4cc(O)cc5ccccc45)c(Cl)cc23)CC1 [compound 200, (2S,4R)-1-((2S)-2-(2-(2-(3-((4-(4-acetylpiperazin-1-yl)-6-chloro-8-fluoro-7-(3-hydroxynaphthalen-1-yl)quinazolin-2-yl)amino)-N-methylpropanamido)ethoxy)acetamido)-3,3-dimethylbutanoyl)-4-hydroxy-N-((S)-1-(4-(4-methylthiazol-5-yl)phenyl)ethyl)pyrrolidine-2-carboxamide]
 |  |  |  |  | C (Percent Degradation: C ≤ 35) | C (Percent Degradation: C ≤ 35) | C (Percent Degradation: C ≤ 35) | ≤ 35% | CC(=O)N1CCN(c2nc(NCCC(=O)N(C)CCOCCOCC(=O)N[C@H](C(=O)N3C[C@H](O)C[C@H]3C(=O)N[C@@H](C)c3ccc(-c4scnc4C)cc3)C(C)(C)C)nc3c(F)c(-c4cc(O)cc5ccccc45)c(Cl)cc23)CC1 [compound 201, (2S,4R)-1-((2S)-15-((4-(4-acetylpiperazin-1-yl)-6-chloro-8-fluoro-7-(3-hydroxynaphthalen-1-yl)quinazolin-2-yl)amino)-2-(tert-butyl)-12-methyl-4,13-dioxo-6,9-dioxa-3,12-diazapentadecanoyl)-4-hydroxy-N-((S)-1-(4-(4-methylthiazol-5-yl)phenyl)ethyl)pyrrolidine-2-carboxamide]
 |  |  |  |  | C (Percent Degradation: C ≤ 35) | C (Percent Degradation: C ≤ 35) | C (Percent Degradation: C ≤ 35) | ≤ 35% | CC(=O)N1CCN(c2nc(NCCC(=O)N(C)CCOCCOCCOCC(=O)N[C@H](C(=O)N3C[C@H](O)C[C@H]3C(=O)N[C@@H](C)c3ccc(-c4scnc4C)cc3)C(C)(C)C)nc3c(F)c(-c4cc(O)cc5ccccc45)c(Cl)cc23)CC1 [compound 202, (2S,4R)-1-((2S)-18-((4-(4-acetylpiperazin-1-yl)-6-chloro-8-fluoro-7-(3-hydroxynaphthalen-1-yl)quinazolin-2-yl)amino)-2-(tert-butyl)-15-methyl-4,16-dioxo-6,9,12-trioxa-3,15-diazaoctadecanoyl)-4-hydroxy-N-((S)-1-(4-(4-methylthiazol-5-yl)phenyl)ethyl)pyrrolidine-2-carboxamide]
